Source: the supplement of paper PMC12592484

Tested on: WPMY-1
Assay: drug sensitivity score (DSS2, normalised partial AUC of dose-response, 72 h CellTiter-Glo viability) (DSS (dimensionless)); higher = more sensitive (stronger growth inhibition / cytotoxicity); extreme values may be limits of the assay
In short: (§1)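 Viability of low-passage primary prostate cancer-associated fibroblasts, PF179T, WPMY-1, LNCaP and 22Rv1 cells was read by CellTiter-Glo 2.0 luminescence 72 h after seeding onto compounds pre-dispensed in 384-well plates at five doses over a 10,000-fold range. Readings were scaled between vehicle and positive-control wells. Sensitivity is reported as a drug sensitivity score from BREEZE, namely a partial area under the fitted logistic curve divided by the log of its upper asymptote, where higher means more sensitive.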

Compound	drug sensitivity score
Nc1cccc2c1CN(C1CCC(=O)NC1=O)C2=O (configuration not stated) [Lenalidomide] (tested concentration range 10-100000 nM)	0
COc1cc2nccc(Oc3ccc(NC(=O)NC4CC4)c(Cl)c3)c2cc1C(N)=O [Lenvatinib] (tested concentration range 0.2-2500 nM)	0.1
N#Cc1ccc(C(c2ccc(C#N)cc2)n2cncn2)cc1 [Letrozole] (tested concentration range 1-10000 nM)	0
O=C1CCc2c(Oc3ccc4c(c3)[C@@H]3[C@H](O4)[C@H]3c3nc4cc(C(F)(F)F)ccc4[nH]3)ccnc2N1 [Lifirafenib] (tested concentration range 1-10000 nM)	3.7
C[C@]1(O)C[C@@H](c2nc(-c3ccc4ccc(-c5ccccc5)nc4c3)c3c(N)nccn32)C1 [Linsitinib] (tested concentration range 1-10000 nM)	0.5
Nc1nc(OCc2cc(Br)cs2)c2[nH]cnc2n1 [Lomeguatrib] (tested concentration range 1-10000 nM)	0
NC(=O)N1CCC(CC(=O)N2CCC([C@H]3c4ncc(Br)cc4CCc4cc(Cl)cc(Br)c43)CC2)CC1 [Lonafarnib] (tested concentration range 5-50000 nM)	16.6
C[C@H]1Oc2cc(cnc2N)-c2c(nn(C)c2C#N)CN(C)C(=O)c2ccc(F)cc21 [Lorlatinib] (tested concentration range 0.1-1000 nM)	0.4
Cc1c(F)cc(C(=O)NC2CC2)cc1-c1ccc(C(=O)NCC(C)(C)C)cn1 [Losmapimod] (tested concentration range 1-10000 nM)	0
CC[C@H](C)C(=O)O[C@H]1C[C@@H](C)C=C2C=C[C@H](C)[C@H](CC[C@@H]3C[C@@H](O)CC(=O)O3)[C@H]21 [Lovastatin] (tested concentration range 1-10000 nM)	1.1
CNC(=O)c1cccc2cc(Oc3ccnc4cc(OCC5(N)CC5)c(OC)cc34)ccc12 [Lucitanib] (tested concentration range 1-10000 nM)	2.8
O=C(O)CC[C@H]1CC[C@@](c2cc(F)ccc2F)(S(=O)(=O)c2ccc(Cl)cc2)CC1 [MK-0752] (tested concentration range 0.1-1000 nM)	0
NC1(c2ccc(-c3nc4ccn5c(=O)[nH]nc5c4cc3-c3ccccc3)cc2)CCC1 [MK-2206] (tested concentration range 0.1-1000 nM)	2.4
O=C(c1cccc(Cl)c1F)N1CCN(Cc2cccc(Nc3nccs3)n2)CC1 [MK-8745] (tested concentration range 1-10000 nM)	7.6
O=C(Nc1cccc(NC(=O)c2cccc(O)c2O)c1)c1cccc(O)c1O [MST-312] (tested concentration range 1-10000 nM)	10.2
CNC(=O)[C@@H](NC(=O)[C@H](CC(C)C)[C@H](O)C(=O)NO)C(C)(C)C [Marimastat] (tested concentration range 1-10000 nM)	0.4
Cc1ccc(NC(=O)c2ccc(CN3CCN(C)CC3)cc2)cc1Nc1nc(-c2cccnc2)cs1 [Masitinib] (tested concentration range 1-10000 nM)	5.3
CCN(CC)CCCC(C)Nc1c2ccc(Cl)cc2nc2ccc(OC)cc12 (configuration not stated) [Mepacrine] (tested concentration range 5-50000 nM)	19.6
S=c1[nH]cnc2nc[nH]c12 [Mercaptopurine] (tested concentration range 1-10000 nM)	9
Cc1ccc(C(=O)Nc2ccc(Oc3cc4cnn(C)c4cc3-c3cn[nH]c3)c(F)c2)c(=O)n1-c1ccc(F)cc1 [Merestinib] (tested concentration range 0.1-1000 nM)	4.3

Tested on: CAF#7 (primary prostate cancer-associated fibroblasts of myCAF-like type)
Assay: as above
In short: as §1

Compound	drug sensitivity score
Nc1cc(COc2c(Cl)cc(C[C@H](N)C(=O)O)cc2Cl)c2oc(-c3ccccc3)nc2c1 [JPH203] (tested concentration range 0.5-5000 nM)	0
CC(C)NC(=O)COc1cccc(-c2nc(Nc3ccc4[nH]ncc4c3)c3ccccc3n2)c1 [KD025] (tested concentration range 0.5-5000 nM)	0.5
CC(C)[C@@H](CS(=O)(=O)C(C)C)N1C(=O)[C@@](C)(CC(=O)O)C[C@H](c2cccc(Cl)c2)[C@H]1c1ccc(Cl)cc1 [KRT-232] (tested concentration range 1-10000 nM)	12.7
CS(=O)(=O)CCNCc1ccc(-c2ccc3ncnc(Nc4ccc(OCc5cccc(F)c5)c(Cl)c4)c3c2)o1 [Lapatinib] (tested concentration range 0.1-1000 nM)	0
O=C(Nc1cnn2ccc(N3CCC[C@@H]3c3cc(F)ccc3F)nc12)N1CC[C@H](O)C1 [Larotrectinib] (tested concentration range 0.1-1000 nM)	0
Oc1ccc2c(c1)CC[C@H](c1ccccc1)[C@@H]2c1ccc(OCCN2CCCC2)cc1 [Lasofoxifene] (tested concentration range 0.1-1000 nM)	0
Nc1cccc2c1CN(C1CCC(=O)NC1=O)C2=O (configuration not stated) [Lenalidomide] (tested concentration range 10-100000 nM)	0
COc1cc2nccc(Oc3ccc(NC(=O)NC4CC4)c(Cl)c3)c2cc1C(N)=O [Lenvatinib] (tested concentration range 0.2-2500 nM)	5.8
N#Cc1ccc(C(c2ccc(C#N)cc2)n2cncn2)cc1 [Letrozole] (tested concentration range 1-10000 nM)	0
O=C1CCc2c(Oc3ccc4c(c3)[C@@H]3[C@H](O4)[C@H]3c3nc4cc(C(F)(F)F)ccc4[nH]3)ccnc2N1 [Lifirafenib] (tested concentration range 1-10000 nM)	0.7
C[C@]1(O)C[C@@H](c2nc(-c3ccc4ccc(-c5ccccc5)nc4c3)c3c(N)nccn32)C1 [Linsitinib] (tested concentration range 1-10000 nM)	0.7
Nc1nc(OCc2cc(Br)cs2)c2[nH]cnc2n1 [Lomeguatrib] (tested concentration range 1-10000 nM)	0
NC(=O)N1CCC(CC(=O)N2CCC([C@H]3c4ncc(Br)cc4CCc4cc(Cl)cc(Br)c43)CC2)CC1 [Lonafarnib] (tested concentration range 5-50000 nM)	7.7
C[C@H]1Oc2cc(cnc2N)-c2c(nn(C)c2C#N)CN(C)C(=O)c2ccc(F)cc21 [Lorlatinib] (tested concentration range 0.1-1000 nM)	2.9
Cc1c(F)cc(C(=O)NC2CC2)cc1-c1ccc(C(=O)NCC(C)(C)C)cn1 [Losmapimod] (tested concentration range 1-10000 nM)	0
CC[C@H](C)C(=O)O[C@H]1C[C@@H](C)C=C2C=C[C@H](C)[C@H](CC[C@@H]3C[C@@H](O)CC(=O)O3)[C@H]21 [Lovastatin] (tested concentration range 1-10000 nM)	3
CNC(=O)c1cccc2cc(Oc3ccnc4cc(OCC5(N)CC5)c(OC)cc34)ccc12 [Lucitanib] (tested concentration range 1-10000 nM)	13.5
O=C(O)CC[C@H]1CC[C@@](c2cc(F)ccc2F)(S(=O)(=O)c2ccc(Cl)cc2)CC1 [MK-0752] (tested concentration range 0.1-1000 nM)	0
NC1(c2ccc(-c3nc4ccn5c(=O)[nH]nc5c4cc3-c3ccccc3)cc2)CCC1 [MK-2206] (tested concentration range 0.1-1000 nM)	1.8
O=C(c1cccc(Cl)c1F)N1CCN(Cc2cccc(Nc3nccs3)n2)CC1 [MK-8745] (tested concentration range 1-10000 nM)	2.6
O=C(Nc1cccc(NC(=O)c2cccc(O)c2O)c1)c1cccc(O)c1O [MST-312] (tested concentration range 1-10000 nM)	11.6
CNC(=O)[C@@H](NC(=O)[C@H](CC(C)C)[C@H](O)C(=O)NO)C(C)(C)C [Marimastat] (tested concentration range 1-10000 nM)	0
Cc1ccc(NC(=O)c2ccc(CN3CCN(C)CC3)cc2)cc1Nc1nc(-c2cccnc2)cs1 [Masitinib] (tested concentration range 1-10000 nM)	1.9
CCN(CC)CCCC(C)Nc1c2ccc(Cl)cc2nc2ccc(OC)cc12 (configuration not stated) [Mepacrine] (tested concentration range 5-50000 nM)	12.6
S=c1[nH]cnc2nc[nH]c12 [Mercaptopurine] (tested concentration range 1-10000 nM)	0.1
Cc1ccc(C(=O)Nc2ccc(Oc3cc4cnn(C)c4cc3-c3cn[nH]c3)c(F)c2)c(=O)n1-c1ccc(F)cc1 [Merestinib] (tested concentration range 0.1-1000 nM)	3.9

Tested on: CAF#3 (primary prostate cancer-associated fibroblasts of myCAF-like type)
Assay: as above
In short: as §1

Compound	drug sensitivity score
Nc1cc(COc2c(Cl)cc(C[C@H](N)C(=O)O)cc2Cl)c2oc(-c3ccccc3)nc2c1 [JPH203] (tested concentration range 0.5-5000 nM)	0
CC(C)NC(=O)COc1cccc(-c2nc(Nc3ccc4[nH]ncc4c3)c3ccccc3n2)c1 [KD025] (tested concentration range 0.5-5000 nM)	2.2
CC(C)[C@@H](CS(=O)(=O)C(C)C)N1C(=O)[C@@](C)(CC(=O)O)C[C@H](c2cccc(Cl)c2)[C@H]1c1ccc(Cl)cc1 [KRT-232] (tested concentration range 1-10000 nM)	6.3
CS(=O)(=O)CCNCc1ccc(-c2ccc3ncnc(Nc4ccc(OCc5cccc(F)c5)c(Cl)c4)c3c2)o1 [Lapatinib] (tested concentration range 0.1-1000 nM)	0.1
O=C(Nc1cnn2ccc(N3CCC[C@@H]3c3cc(F)ccc3F)nc12)N1CC[C@H](O)C1 [Larotrectinib] (tested concentration range 0.1-1000 nM)	0
Oc1ccc2c(c1)CC[C@H](c1ccccc1)[C@@H]2c1ccc(OCCN2CCCC2)cc1 [Lasofoxifene] (tested concentration range 0.1-1000 nM)	0
Nc1cccc2c1CN(C1CCC(=O)NC1=O)C2=O (configuration not stated) [Lenalidomide] (tested concentration range 10-100000 nM)	0
COc1cc2nccc(Oc3ccc(NC(=O)NC4CC4)c(Cl)c3)c2cc1C(N)=O [Lenvatinib] (tested concentration range 0.2-2500 nM)	4.1
N#Cc1ccc(C(c2ccc(C#N)cc2)n2cncn2)cc1 [Letrozole] (tested concentration range 1-10000 nM)	0
O=C1CCc2c(Oc3ccc4c(c3)[C@@H]3[C@H](O4)[C@H]3c3nc4cc(C(F)(F)F)ccc4[nH]3)ccnc2N1 [Lifirafenib] (tested concentration range 1-10000 nM)	0
C[C@]1(O)C[C@@H](c2nc(-c3ccc4ccc(-c5ccccc5)nc4c3)c3c(N)nccn32)C1 [Linsitinib] (tested concentration range 1-10000 nM)	0
Nc1nc(OCc2cc(Br)cs2)c2[nH]cnc2n1 [Lomeguatrib] (tested concentration range 1-10000 nM)	0.1
NC(=O)N1CCC(CC(=O)N2CCC([C@H]3c4ncc(Br)cc4CCc4cc(Cl)cc(Br)c43)CC2)CC1 [Lonafarnib] (tested concentration range 5-50000 nM)	9.2
C[C@H]1Oc2cc(cnc2N)-c2c(nn(C)c2C#N)CN(C)C(=O)c2ccc(F)cc21 [Lorlatinib] (tested concentration range 0.1-1000 nM)	0
Cc1c(F)cc(C(=O)NC2CC2)cc1-c1ccc(C(=O)NCC(C)(C)C)cn1 [Losmapimod] (tested concentration range 1-10000 nM)	0
CC[C@H](C)C(=O)O[C@H]1C[C@@H](C)C=C2C=C[C@H](C)[C@H](CC[C@@H]3C[C@@H](O)CC(=O)O3)[C@H]21 [Lovastatin] (tested concentration range 1-10000 nM)	0.3
CNC(=O)c1cccc2cc(Oc3ccnc4cc(OCC5(N)CC5)c(OC)cc34)ccc12 [Lucitanib] (tested concentration range 1-10000 nM)	6.3
O=C(O)CC[C@H]1CC[C@@](c2cc(F)ccc2F)(S(=O)(=O)c2ccc(Cl)cc2)CC1 [MK-0752] (tested concentration range 0.1-1000 nM)	0
NC1(c2ccc(-c3nc4ccn5c(=O)[nH]nc5c4cc3-c3ccccc3)cc2)CCC1 [MK-2206] (tested concentration range 0.1-1000 nM)	4
O=C(c1cccc(Cl)c1F)N1CCN(Cc2cccc(Nc3nccs3)n2)CC1 [MK-8745] (tested concentration range 1-10000 nM)	6.8
O=C(Nc1cccc(NC(=O)c2cccc(O)c2O)c1)c1cccc(O)c1O [MST-312] (tested concentration range 1-10000 nM)	8.9
CNC(=O)[C@@H](NC(=O)[C@H](CC(C)C)[C@H](O)C(=O)NO)C(C)(C)C [Marimastat] (tested concentration range 1-10000 nM)	0.6
Cc1ccc(NC(=O)c2ccc(CN3CCN(C)CC3)cc2)cc1Nc1nc(-c2cccnc2)cs1 [Masitinib] (tested concentration range 1-10000 nM)	0.6
CCN(CC)CCCC(C)Nc1c2ccc(Cl)cc2nc2ccc(OC)cc12 (configuration not stated) [Mepacrine] (tested concentration range 5-50000 nM)	11.3
S=c1[nH]cnc2nc[nH]c12 [Mercaptopurine] (tested concentration range 1-10000 nM)	0.1
Cc1ccc(C(=O)Nc2ccc(Oc3cc4cnn(C)c4cc3-c3cn[nH]c3)c(F)c2)c(=O)n1-c1ccc(F)cc1 [Merestinib] (tested concentration range 0.1-1000 nM)	3
